# Assay results from patent EP0742012A2, “Pharmaceutical composition containing substance inhibiting HSP47 production” (priority 1995, dated 1996).
# Assays:
# HSP47 = experiment: Amount of HSP47 produced in human cancer cell lines after substance treatment and heat shock, western blotting; assay type: cell-based; parameters: key to amounts of HSP47 produced: ↓: means that the amounts of HSP47 produced were reduced by the flavonoid-treatment in comparison with the control tests; conditions: for amounts of HSP47 produced: vs control
# mice [1] = conditions: mouse, in vivo, po
# mice [2] = experiment: Acute toxicity test for mice by oral administration
# mouse = conditions: in vivo, iv; cited from earlier work
# [3] = colon cancer cell line COLO 205, 100 µM in the medium
# [4] = uterus cancer cell line HeLa S3, 100 µM in the medium
# [5] = neuroblastoma cell line SK-N-MC, 100 µM in the medium
compound,measurement,setting,value
"O=c1cc(-c2ccccc2)oc2cc(O)c(O)c(O)c12 [baicalein, 5,6,7-trihydroxy-2-phenyl-4H-1-benzopyran-4-one]",amounts of HSP47 produced,"HSP47; uterus cancer cell line HeLa S3, 10 µM in the medium",↓
"COc1cc(C=CC(=O)O)ccc1O [ferulic acid, 4-hydroxy-3-methoxycinnamic acid]",HSP47 production,"HSP47; uterus cancer cell line HeLa S3, final concentration 100 µM",inhibits the HSP47 production
C[C@@]12C[C@@]3(O)O[C@@H](O1)[C@]1(COC(=O)c4ccccc4)[C@H]3C[C@@]12O[C@@H]1O[C@H](CO)[C@@H](O)[C@H](O)[C@H]1O [paeoniflorin],HSP47 production,HSP47; uterus cancer cell line HeLa S3,inhibits the HSP47 production
same,toxicity,mice [1],does not have toxicity
same,death,mice [2],does hardly cause death
"O=c1c(O)c(-c2ccc(O)c(O)c2)oc2cc(O)cc(O)c12 [quercetin, 2-(3,4-dihydroxyphenyl)-3,5,7-trihydroxy-4H-1-benzopyran-4-one]",amounts of HSP47 produced,HSP47; [3],↓
same,amounts of HSP47 produced,"HSP47; kidney cancer cell line ACHN, 100 µM in the medium",↓
same,amounts of HSP47 produced,HSP47; [4],↓
"C[C@@H]1O[C@@H](OC[C@H]2O[C@@H](Oc3c(-c4ccc(O)c(O)c4)oc4cc(O)cc(O)c4c3=O)[C@H](O)[C@@H](O)[C@@H]2O)[C@H](O)[C@H](O)[C@H]1O [rutin, quercetin-3-rutinoside]",acute toxicity (LD50),mouse,950 mg/kg
same,amounts of HSP47 produced,HSP47; [5],↓
"Cc1c(C)c2c(c(C)c1O)CCC(C)(CCCC(C)CCCC(C)CCCC(C)C)O2 (stereo not drawn) [α-tocopherol, 3,4-dihydro-2,5,7,8-tetramethyl-2-(4,8,12-trimethyltridecyl)-2H-1-benzopyran-6-ol]",HSP47 production,"HSP47; uterus cancer cell line HeLa S3, final concentration 20 µM",inhibits the HSP47 production
(+) -Catechin,amounts of HSP47 produced,HSP47; [3],↓
same,amounts of HSP47 produced,"HSP47; lung cancer cell line H69, 100 µM in the medium",↓
same,amounts of HSP47 produced,HSP47; [5],↓
same,amounts of HSP47 produced,HSP47; [4],↓
